How the values were obtained:
[1] = Toxicity in BALB/c mouse assessed as effect on hair loss at 100 mg/kg, po; assay type: organism-based; conditions: in vivo
[2] = Metabolic stability in human liver microsomes assessed as parent compound remaining at 2 uM measured at 60 mins by LC-MS/MS analysis; assay type: ADME, Microsome; conditions: 1 h
[3] = Mutagenicity in Salmonella typhimurium TA98 at 0.01 to 100 uM incubated for 90 mins in absence of liver S9 fraction by AMES test; assay type: toxicity; conditions: salmonella enterica subsp. enterica serovar typhimurium, s9, 1.5 h, dose 0.01-100 µM
[4] = Half life in BALB/c mouse at 150 mg/kg, po measured after 15 to 360 mins by LC-MS/MS analysis; assay type: ADME, organism-based; conditions: in vivo, time 15-360 min
[5] = AUC infinity in BALB/c mouse at 150 mg/kg, po measured after 15 to 360 mins by LC-MS/MS analysis; assay type: ADME, organism-based; conditions: in vivo, time 15-360 min
[6] = Toxicity in BALB/c mouse assessed as diarrhea at 100 mg/kg, po; assay type: organism-based; conditions: in vivo
[7] = Drug recovery in human plasma; assay type: ADME, cell-free
[8] = Toxicity in BALB/c mouse assessed as effect on hair loss at 40 mg/kg, iv; assay type: organism-based; conditions: in vivo
[9] = Stability in human plasma; assay type: ADME, cell-free
[10] = Tmax in BALB/c mouse at 150 mg/kg, po measured after 15 to 360 mins by LC-MS/MS analysis; assay type: ADME, organism-based; conditions: in vivo, time 15-360 min
[11] = AUC (0 to last) in BALB/c mouse at 40 mg/kg, iv measured upto 1440 mins by LC-MS/MS analysis; assay type: ADME, organism-based; conditions: in vivo, 24 h
[12] = Drug uptake in BALB/c mouse brain at 40 mg/kg, iv measured after 2 hrs; assay type: ADME, organism-based; conditions: in vivo
[13] = Toxicity in BALB/c mouse assessed as tremor at 100 mg/kg, po; assay type: organism-based; conditions: in vivo
[14] = Tmax in BALB/c mouse at 40 mg/kg, iv measured upto 1440 mins by LC-MS/MS analysis; assay type: ADME, organism-based; conditions: in vivo, 24 h
[15] = Drug uptake in BALB/c mouse kidney at 40 mg/kg, iv measured after 2 hrs; assay type: ADME, organism-based; conditions: in vivo
[16] = Cytotoxicity against human ARPE-19 cells assessed as reduction in cell viability incubated for 96 hrs by CellTiter 96 Aqueous One Solution Cell Proliferation Assay; assay type: toxicity, cell-based
[17] = In vivo inhibition of LMP2 activity in BALB/c mouse brain at 40 mg/kg, iv measured after 2 hrs relative to control; assay type: functional
[18] = Drug uptake in BALB/c mouse liver at 40 mg/kg, iv measured after 2 hrs; assay type: ADME, organism-based; conditions: in vivo
[19] = Toxicity in BALB/c mouse assessed as tremor at 40 mg/kg, iv; assay type: organism-based; conditions: in vivo

Stability [2]: 33%
t1/2 [4]: 47.5 min
AUC [5]: 3571 ng·h/mL
Drug recovery [7]: 74%
Stability [9]: 78%
Tmax [10]: 20 min
AUClast [11]: 9689 ng·h/mL
Drug uptake [12]: Active
Tmax [14]: 4.98 min
Drug uptake [15]: Active
Drug uptake [18]: Active
Structure (SMILES): CC(C)C[C@H](NC(=O)[C@@H]1COCCCCCC(=O)N2C[C@H](F)C[C@H]2C(=O)N1)C(=O)[C@@]1(C)CO1
Activity [1]: Non-Toxic
Activity [3]: Non-Toxic
Activity [6]: Non-Toxic
Activity [8]: Non-Toxic
Activity [13]: Non-Toxic
IC50 at 96 h [16]: > 100 µM
inhibition in vivo at 40 mg/kg [17]: 56%
Activity [19]: Non-Toxic

Reference: ChEMBL document CHEMBL5506017, “Brain-Permeable Immunoproteasome-Targeting Macrocyclic Peptide Epoxyketones for Alzheimer's Disease” (J Med Chem, 2024)
